In PubChem BioAssay (NCI):
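Grown in 96-well plates, cells were treated for 48 hours with each compound at five concentrations. Insufficient inhibition: endpoint recorded as highest concentration tested. Here, GI50 denotes the concentration required for 50% inhibition of growth. TGI marks complete inhibition of growth.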

Key:
Assay in all cases: NCI anticancer screen, dose series, 48 h
HCT-15 colon = tested on: HCT-15 colon
COLO 205 colon = tested on: COLO 205 colon
SF-539 CNS = tested on: SF-539 CNS
A549 NSCLC = tested on: A549 NSCLC
NCI-H522 lung = tested on: NCI-H522 lung
UACC-62 melanoma = tested on: UACC-62 melanoma
MALME-3M melanoma = tested on: MALME-3M melanoma
SNB-75 CNS = tested on: SNB-75 CNS
HS 578T breast = tested on: HS 578T breast
SR leukemia = tested on: SR leukemia

| SMILES | GI50 (HCT-15 colon) [µM] | TGI (HCT-15 colon) [µM] | GI50 (COLO 205 colon) [µM] | TGI (COLO 205 colon) [µM] | GI50 (SF-539 CNS) [µM] | TGI (SF-539 CNS) [µM] | GI50 (A549 NSCLC) [µM] | TGI (A549 NSCLC) [µM] | GI50 (NCI-H522 lung) [µM] | TGI (NCI-H522 lung) [µM] | GI50 (UACC-62 melanoma) [µM] | TGI (UACC-62 melanoma) [µM] | GI50 (MALME-3M melanoma) [µM] | TGI (MALME-3M melanoma) [µM] | GI50 (SNB-75 CNS) [µM] | TGI (SNB-75 CNS) [µM] | GI50 (HS 578T breast) [µM] | TGI (HS 578T breast) [µM] | TGI (SR leukemia) [µM] | GI50 (SR leukemia) [µM] |
| --- | --- | --- | --- | --- | --- | --- | --- | --- | --- | --- | --- | --- | --- | --- | --- | --- | --- | --- | --- | --- |
| Cc1ccc(C2=NOC3=c4ccccc4=CSC3=C2c2ccc([N+](=O)[O-])cc2)cc1 | 33.2 | > 100 | 35.8 | > 100 | 7.18 | 25.4 | 24.5 | > 100 | 12.5 | 68.5 | 14.5 | 31.3 | 17.7 | 89.5 | 24.5 | 81.4 | 22.9 | 94.9 | – | – |
| CCOC(=O)C1=C(NC)OC/C1=N\NC(=O)c1ccccc1O | – | – | – | > 100 | – | 60.6 | – | > 100 | – | 90.5 | – | 80.5 | – | > 100 | – | > 100 | – | – | – | – |
| Cc1c(C#N)c(=O)[nH]c(=O)n1CCN1CCN(C(=O)NCCCCCCNC(=O)N2CCN(CCn3c(C)c(C#N)c(=O)[nH]c3=O)CC2)CC1 | – | > 100 | – | > 100 | – | > 100 | – | > 100 | – | – | – | > 100 | – | – | – | > 100 | – | – | – | – |
| O=C(O)C1(P(=O)(O)O)CC1 | – | > 100 | – | > 100 | – | > 100 | – | > 100 | – | > 100 | – | > 100 | – | > 100 | – | > 100 | – | – | – | – |
| COc1cc2c(cc1OC(=O)CC(C)O)C1C(OC2=O)C(OC(C)=O)C=C2CCN(C)[C@H]21 (stereo partly drawn) | – | – | – | > 100 | – | 52.8 | – | > 100 | – | > 100 | – | > 100 | – | – | – | 38.4 | – | – | > 100 | – |
| COc1cc(C(=O)C/C(CCC(=O)Nc2ccccc2[N+](=O)[O-])=N\NC(=O)CC#N)ccc1O | – | > 100 | – | > 100 | – | > 100 | – | > 100 | – | > 100 | – | > 100 | – | > 100 | – | > 100 | – | – | – | – |
| CC(=O)OC1CCn2nnc(CO[Si](C)(C)C(C)(C)C)c21 (stereo not drawn) | – | > 100 | – | > 100 | – | > 100 | – | > 100 | – | > 100 | – | – | – | > 100 | – | > 100 | – | – | > 100 | – |
| Nc1ncnc2[nH]ncc12 | 0.281 | > 100 | 1.55 | > 67.3 | 4.17 | > 100 | 1.72 | > 66.8 | 0.649 | 9.48 | 0.512 | 3.48 | – | – | 2.1 | > 100 | 7.32 | > 100 | > 100 | 0.445 |
| C=CCOC1OC(CO[Si](C)(C)C(C)(C)C)C(OCc2ccccc2)C(OCc2ccccc2)C1OCc1ccccc1 (stereo not drawn) | – | > 100 | – | > 100 | – | – | – | > 100 | – | > 100 | – | > 100 | – | > 100 | – | 51.1 | – | > 100 | > 100 | – |
| CCC1CN2CCc3cc(OC)c(OC)cc3C2CC1CC1c2cc(OC)c(OC)cc2CCN1C(=O)C1CCCN1C(=O)OCc1ccccc1 (stereo not drawn) | – | 29.9 | – | – | – | 33 | – | 39.2 | – | – | – | 29.7 | – | 32.4 | – | 28.3 | – | – | – | – |
| CCOC(=O)C1Oc2ccc([N+](=O)[O-])c3c2C1(O)CCC3 (stereo not drawn) | – | > 100 | – | > 100 | – | > 100 | – | > 100 | – | > 100 | – | > 100 | – | > 100 | – | > 100 | – | – | > 100 | – |
| O=S(=O)(c1ccccc1)C(CN1CCCCC1)S(=O)(=O)c1ccccc1 | – | > 100 | – | > 100 | – | > 100 | – | > 100 | – | > 100 | – | > 100 | – | > 100 | – | > 100 | – | – | > 100 | – |
| c1ccc2c(c1)c(NCCCCN1CCCCC1)cc1c3ccccc3c(NCCCCN3CCCCC3)cc21 | 22.8 | 47.5 | 21.9 | 47.7 | 16.5 | 37.5 | 21.8 | 56.6 | 66.2 | > 100 | 19.5 | 35.4 | 12.9 | 38.7 | – | – | 27.5 | 68.6 | – | – |
| Nn1c(-c2ccccc2Cl)nc2ccccc2c1=O | – | > 100 | – | > 100 | – | > 100 | – | > 100 | – | > 100 | – | > 100 | – | > 100 | – | > 100 | – | – | – | – |
| N#CC(C(=O)CCC(=O)Nc1cccc(Cl)c1)c1ccccc1 (stereo not drawn) | – | > 100 | – | > 100 | – | > 100 | – | > 100 | – | > 100 | – | > 100 | – | > 100 | – | > 100 | – | – | > 100 | – |
| O=C(NN1C(=O)CSC12CCCCC2)c1[nH]c2ccc(F)cc2c1-c1ccccc1 | 32.3 | > 100 | 36.8 | > 100 | 21.8 | 37.2 | 16.7 | 30.6 | 19.1 | 58.7 | 15.2 | 54.7 | 20.2 | 43.5 | 18.5 | 36.2 | 21.8 | 82.8 | – | – |
| O=C1c2ccccc2-c2c1c1ccc([N+](=O)[O-])cc1c(=O)n2CCCBr | > 100 | > 100 | > 100 | > 100 | > 100 | > 100 | > 100 | > 100 | 96.8 | > 100 | > 100 | > 100 | > 100 | > 100 | > 100 | > 100 | – | – | > 100 | 0.2 |
| C=C1COC(/C=C(\C)CC/C=C(\C)CCl)C1 (stereo not drawn) | – | > 100 | – | > 100 | – | > 100 | – | > 100 | – | > 100 | – | > 100 | – | – | – | > 100 | – | – | – | – |
| COc1ccc(C2CC(c3cc(OC)c(OC)c(OC)c3)=NN2C(C)=O)cc1OCC(=O)Nc1nc2ccc(C(F)(F)F)cc2s1 (stereo not drawn) | 9.26 | > 100 | 3.94 | > 100 | 1.75 | 3.42 | – | – | 2.71 | > 100 | 3.77 | > 100 | – | – | 1.55 | 4.78 | 2.48 | 7.74 | – | – |
